Columns and labels:
T. brucei = settings: spiro carbocyclic 2,6-DKP-1-acetohydroxamic acids 1-5 reported previously; cited from earlier work
[1] = tested on: bloodstream form T. b. brucei (strain 221); experiment: Growth inhibition of cultured bloodstream-form T. brucei (resazurin); type: cell-based, Trypanosoma brucei; settings: for IC50 / IC90: cultured bloodstream-form Trypanosoma brucei, pH = 7.4, mean of triplicate ± SEM; for IC50: concentration inhibiting growth by 50%; for IC90: concentration inhibiting growth by 90%; for trypanocidal activity (in words): bloodstream-form T. brucei; for times more potent than the unsubstituted parent / times more potent than the nonmethylated counterpart / times more potent than 18: T. brucei IC50; for times more potent than the unsubstituted parent: 19 and 20 vs 18, 25 vs 24, 28 vs 27; for times more potent than the nonmethylated counterpart: 21 vs 18, 22 vs 19, 23 vs 20, 26 vs 24
Method: The new hydroxamic acid derivatives 18–28 were tested against bloodstream-form T. brucei in vitro. The results are presented in Table 1, and are expressed as IC50 and IC90 values. […]
Reference: minimized structure, heterocycle and adamantane cage).
IV. Experimental procedures for the biological evaluation of the compounds
Growth inhibition analysis was carried out using bloodstream form T. b. brucei (strain 221) cultured at
37 °C, as previously described.8 Briefly, experiments were performed using 96-well microtiter plates (200
μL volumes), with each assay initiated with 2.5 x10^4 parasites mL−1, and test compounds then added at 7
concentrations in a range that had been established in preliminary experiments to encompass both EC50
and EC90 values. Plates were incubated for 48 hours, resazurin (20 μL at 0.125 mg mL−1) was then added,
and the plates re-incubated for 16 hours. Fluorescence was determined using a BMG FLUOstar Omega plate
reader (excitation 545 nm, emission 590 nm), and the data analysed using GraphPad Prism 9.0 software.
The data are expressed as IC50/IC90 ± SD, and are the average of 3 independent replicates. […]

[2] = tested on: L6 cells (a rat myoblast line); experiment: Cytotoxicity against cultured rat skeletal myoblast L6 cells (resazurin); type: cell-based; settings: for Selectivity indices (SIs): ratio of the IC50 for L6 cells and T. brucei; for IC50: cultured rat skeletal myoblast L6 cells, mean of triplicate ± SEM
Method: (§1) To determine cytotoxicity, L6 cells (a rat myoblast line) were seeded at 1x104 mL−1 into 96-well microtiter plates (200 μL of growth medium), at a range of compound concentrations. After 6 days incubation at 37°C, 20 μL resazurin (0.125 mg mL−1) was added to each well. The plates were incubated for 6 hours, and fluorescence determined by plate reader, as above. […]

[3] = as above; type: cell-based; settings: rat, L6 rat skeletal myoblast cells, cultured rat skeletal myoblast L6 cells; mean of triplicate ± SEM
Method: as §1

| SMILES | IC50 (T. brucei) | IC50 ([1]; Trypanosoma brucei) | IC90 ([1]; Trypanosoma brucei) | Selectivity indices (SIs) [2] | other results |
| --- | --- | --- | --- | --- | --- |
| O=C(CN1C(=O)CNC2(C1=O)C1CC3CC(C1)CC2C3)NO (stereo not drawn) [Compound 1a] | 90 nM | – | – | – | – |
| CN1CC(=O)N(CC(=O)NO)C(=O)C12C1CC3CC(C1)CC2C3 (stereo not drawn) [Compound 1b] | 193 nM | – | – | – | – |
| C[C@@H]1NC2(C(=O)N(CC(=O)NO)C1=O)C1CC3CC(C1)CC2C3 (stereo partly drawn) [Compound 1c] | 134 nM | – | – | – | – |
| CC(C)C[C@@H]1NC2(C(=O)N(CC(=O)NO)C1=O)C1CC3CC(C1)CC2C3 (stereo partly drawn) [Compound 1d] | 283 nM | – | – | – | – |
| CSCC[C@@H]1NC2(C(=O)N(CC(=O)NO)C1=O)C1CC3CC(C1)CC2C3 (stereo partly drawn) [Compound 1e] | 168 nM | – | – | – | – |
| O=C(CN1C(=O)[C@H](Cc2ccccc2)NC2(C1=O)C1CC3CC(C1)CC2C3)NO (stereo partly drawn) [Compound 1f] | 6.8 nM | – | – | – | – |
| O=C(CN1C(=O)[C@@H](Cc2ccccc2)NC2(C1=O)C1CC3CC(C1)CC2C3)NO (stereo partly drawn) [Compound 1g] | 9.1 nM | – | – | – | – |
| O=C(CN1C(=O)C(Cc2ccccc2)NC2(C1=O)C1CC3CC(C1)CC2C3)NO (stereo not drawn) [Compound 2] | 17 nM | – | – | – | – |
| O=C(CN1C(=O)C(Cc2ccc(Cl)cc2)NC2(C1=O)C1CC3CC(C1)CC2C3)NO (stereo not drawn) [Compound 3] | 32 nM | – | – | – | – |
| O=C(CN1C(=O)CNC2(CCCCCCC2)C1=O)NO [Compound 4a] | 300 nM | – | – | – | – |
| CN1CC(=O)N(CC(=O)NO)C(=O)C12CCCCCCC2 [Compound 4b] | 158 nM | – | – | – | – |
| C[C@@H]1NC2(CCCCCCC2)C(=O)N(CC(=O)NO)C1=O [Compound 4c] | 125 nM | – | – | – | – |
| CC(C)C[C@@H]1NC2(CCCCCCC2)C(=O)N(CC(=O)NO)C1=O [Compound 4d] | 72 nM | – | – | – | – |
| O=C(CN1C(=O)[C@H](Cc2ccccc2)NC2(CCCCCCC2)C1=O)NO [Compound 4f] | 29 nM | – | – | – | – |
| O=C(CN1C(=O)CNC2(CCCCCC2)C1=O)NO [Compound 5a] | 1870 nM | – | – | – | – |
| CN1CC(=O)N(CC(=O)NO)C(=O)C12CCCCCC2 [Compound 5b] | 285 nM | – | – | – | – |
| O=C(CNC(=O)CN1C(=O)CNC2(C1=O)C1CC3CC(C1)CC2C3)NO (stereo not drawn) [Compound 18] | – | 25000 ± 3000 nM | 36000 ± 2000 nM | – | fold loss in potency ([1]; T. brucei IC50 relative to compound 1a (insertion of acetamido portion)): 278 fold; trypanocidal activity (in words) [1]: marginal activity |
| CC(C)C[C@@H]1NC2(C(=O)N(CC(=O)NCC(=O)NO)C1=O)C1CC3CC(C1)CC2C3 (stereo partly drawn) [Compound 19] | – | 400 ± 90 nM | 980 ± 50 nM | 90 | IC50 at 6 days [3]: 35000 ± 4000 nM; times more potent than the unsubstituted parent [1]: 62 fold |
| Cl.O=C(CNC(=O)CN1C(=O)[C@H](Cc2ccccc2)NC2(C1=O)C1CC3CC(C1)CC2C3)NO (stereo partly drawn) [Compound 20.HCl] | – | – | – | 16 | IC50 [2]: 25000 nM; IC50 [1]: 1530 nM; IC90 [1]: 4260 nM |
| O=C(CNC(=O)CN1C(=O)[C@H](Cc2ccccc2)NC2(C1=O)C1CC3CC(C1)CC2C3)NO (stereo partly drawn) [Compound 20] | – | 1230 ± 200 nM | 4880 ± 740 nM | 24 | IC50 at 6 days [3]: 29000 ± 2000 nM; times more potent than the unsubstituted parent [1]: 20 fold |
| CN(CC(=O)NO)C(=O)CN1C(=O)CNC2(C1=O)C1CC3CC(C1)CC2C3 (stereo not drawn) [Compound 21] | – | 1330 ± 110 nM | 3420 ± 850 nM | 285 | IC50 at 6 days [3]: 376000 ± 7000 nM; times more potent than the nonmethylated counterpart [1]: 19 fold |
| CC(C)C[C@@H]1NC2(C(=O)N(CC(=O)N(C)CC(=O)NO)C1=O)C1CC3CC(C1)CC2C3 (stereo partly drawn) [Compound 22] | – | 34 ± 2 nM | 57 ± 5 nM | 940 | IC50 at 6 days [3]: 32000 ± 3000 nM; times more potent than 18 [1]: 735 fold; times more potent than the nonmethylated counterpart [1]: 12 fold |
| CN(CC(=O)NO)C(=O)CN1C(=O)[C@H](Cc2ccccc2)NC2(C1=O)C1CC3CC(C1)CC2C3 (stereo partly drawn) [Compound 23] | – | 53 ± 11 nM | 81 ± 3 nM | 470 | IC50 at 6 days [3]: 25000 ± 2000 nM; times more potent than 18 [1]: 472 fold; times more potent than the nonmethylated counterpart [1]: 23 fold |
| O=C(CNC(=O)CN1C(=O)CNC2(CCCCCCC2)C1=O)NO [Compound 24] | – | > 300000 nM | > 300000 nM | – | trypanocidal activity (in words) [1]: inactive |
| CC(C)C[C@@H]1NC2(CCCCCCC2)C(=O)N(CC(=O)NCC(=O)NO)C1=O.Cl [Compound 25.HCl] | – | – | – | 295 | IC50 [2]: 249000 nM; IC50 [1]: 850 nM; IC90 [1]: 1710 nM |
| CC(C)C[C@@H]1NC2(CCCCCCC2)C(=O)N(CC(=O)NCC(=O)NO)C1=O [Compound 25] | – | 1190 ± 280 nM | 1900 ± 100 nM | 185 | IC50 at 6 days [3]: 223000 ± 28000 nM; times more potent than the unsubstituted parent [1]: > 252 fold |
| CN(CC(=O)NO)C(=O)CN1C(=O)CNC2(CCCCCCC2)C1=O [Compound 26] | – | 38000 ± 8000 nM | – | – | times more potent than the nonmethylated counterpart [1]: > 8 fold |
| O=C(CNC(=O)CN1C(=O)CNC2(CCCCCC2)C1=O)NO [Compound 27] | – | > 30000 nM | – | – | trypanocidal activity (in words) [1]: inactive |
| CC(C)C[C@@H]1NC2(CCCCCC2)C(=O)N(CC(=O)NCC(=O)NO)C1=O [Compound 28] | – | 1650 ± 130 nM | 3330 ± 130 nM | 235 | IC50 at 6 days [3]: 390000 ± 6000 nM; times more potent than the unsubstituted parent [1]: > 18 fold |

Reference: article PMC11247629, “New Lipophilic Hydroxamates as Promising Trypanocidal Agents: Design, Synthesis, SAR, and Conformational Behavior Studies” (ACS Medicinal Chemistry Letters, 2024)
